From US20260335468A1, “MOLECULAR RADIOAFTERGLOW PROBES FOR CANCER RADIODYNAMIC THERANOSTICS” (NANYANG TECHNOLOGICAL UNIVERSITY, priority 2023, published 2026)

Experiments:
[1] = Radio afterglow spectra, intensity and half-life of luminophores in PBS after X-ray; format: physicochemical
Method: The optical properties of DPAs and IDPAs were investigated in an aqueous solution (FIGS. 2 and 3). […] Their half-lives ranged from 9.2 to 196.8 min (FIG. 4e).
DPAs or IDPAs (100 μM) in 0.01 M PBS (pH 7.4, 50% DMSO) were irradiated by X-rays at 250 μGy s^−1 for 20 s (total, 5 mGy) under the specific setup parameter of 10 kV and 75 μA. Then, the radio afterglow signal was collected with an IVIS imaging system under the bioluminescence mode with an open filter and an acquisition time of 60 s. Finally, the radio afterglow intensities were quantified by a region-of-interest analysis using Living Image 4.3 software. In addition, the radio afterglow spectra of the candidates were acquired under the same test conditions with specific emission filters, and time courses of the signal were recorded as a function of time.

[2] = O2·^− detection with DHR123 upon X-ray irradiation; format: physicochemical; conditions: elevated radiation dosage
Method: To study other ROS generation, fluorescence sensors DHR123 (for O2·^− detection) and HPF (for ·OH detection) were used. For O2·^− detection, DHR123 (10 PM) was added to a solution of IDPASu (10 M) in PBS (0.01 M pH 7.4, 50% DMSO), followed by X-ray irradiation at different doses of 5 mGy (250 μGy s^−1 for 20 s) and 2 Gy (100 mGy s^1 for 20 s). The fluorescence changes in DHR123 were recorded at λex of 505 nm and λem of 534 nm. For ·OH detection, HPF ([…]) was added in a solution of IDPASu (10 M) in PBS (0.01 M, pH 7.4, 50% DMF), followed by X-ray irradiation at different doses, namely, 5 mGy (250 μGy s^−1 for 20 s) and 2 Gy (100 mGy s^−1 for 20 s). The fluorescence changes in HPF were collected at ex of 450 nm and λem of 515 nm. The ROS production was calculated by the corresponding standard curve.

[3] = ^1O2 generation at tissue depth (X-ray or light through chicken breast tissue); format: physicochemical
Method: To study ^1O2 generation, a mixture of DPAS or IDPAS (100 M) and TEMP (10 mM) in PBS (0.01 M, pH 7.4, 50% DMSO) was irradiated by X-rays at 2 Gy (100 mGy s^−1 for 20 s) or 5 mGy (250 μGy s^−1 for 20 s). The ESR signals of the mixture were recorded with a Bruker A300 instrument. The ESR signal of the free radical 2,2,6,6-tetramethyl-1-piperidinyloxyl (g=2.0060) was generated by the reaction of ^1O2 with TEMP. The ^1O2 quencher NaN3 (1 mM) was added to validate the afterglow mechanism of IDPASu. Additionally, other commercially available radio sensitizers (such as acridine orange, hematoporphyrin and verteporfin) were measured and compared. The procedure of block depths was similar to that of the tissue penetration depth study and the ^1O2 generation for different depth tissues was measured. The ESR signal changes of MRAP in the absence or presence of CatB were measured in a similar way. The ESR signals of 2,2,6,6-tetramethyl-1-piperidinyloxyl from the reaction of ^1O2 with TEMP were plotted as a function of the concentration of ^1O2, which was generated by the addition of NaOCl to H2O2. This generated the standard curve between the ESR intensity and ^1O2 concentration.
The deep-tissue radiodynamic process of IDPASu was tested by measuring ^1O2 generation at different tissue depths and compared with photosensitization (FIG. 11c).

[4] = In vivo limit of detection of subcutaneously injected IDPASu (radio afterglow); parameters: species or system mouse (BALB/c nude); conditions: subcutaneous injection, X-ray 5 mGy, LOD=3σ/k
Method: To test the LOD of IDPASu for in vivo RAI, 20 μl of the mixture solution of IDPASu at different concentrations (100.0, 50.0, 20.0, 10.0, 5.0, 1.0, 0.5 and 0 μM) and solubilizing agent (2-carboxyethyl)-o-cyclodextrin sodium salt (β-CD) at 100 μM was subcutaneously injected into the left flank of BALB/c nude mice (six weeks old). After 30 min, the left flank of mice were irradiated with X-rays at 5 mGy (250 μGy s^−1 for 20 s) as the other areas were protected by a 3.4-mm-thick lead shield with a notch under the X-ray irradiation. Radio afterglow signals were recorded. The detection limit was calculated using this equation: LOD=3σ/k, where a represents the s.d. of blank and k implies the slope of the radio afterglow intensities.

radio afterglow emission maximum ([1]; X-ray 250 μGy s^−1 for 20 s, aqueous solution): ~ 773 nm
SMILES: COC(=C1C2CC3CC(C2)CC1C3)c1cc(O)c(I)cc1/C=C/C1=CC(=C(C#N)C#N)c2ccccc2S1 [IDPASu]
radio afterglow intensity increase versus iodine-free counterpart ([1]; 100 μM, PBS pH 7.4, 50% DMSO, X-ray 5 mGy): 6.46 fold | correlation of radio afterglow signal with concentration ([1]; IDPASu solution): linear correlation | long-lasting radio afterglow, up to ([1]; X-ray 250 μGy s^−1 for 20 s): ~ 25 h | radio afterglow brightness / intensity ([1]; X-ray irradiation): highest brightness | repetitive induction of radio afterglow ([1]; after ten cycles of X-ray irradiation): minimal intensity decrease after ten cycles | O2·^− generation [2]: only minimal O2·^− could be generated | decrease of ^1O2 concentration at tissue depth of 1 cm, X-ray ([3]; X-ray through 1 cm tissue): ~ 30% | radiodynamic ^1O2 generation at tissue depth of 15 cm ([3]; X-ray through 15 cm tissue): still inducible | ^1O2 generation at tissue depth of 1 cm, light irradiation ([3]; light through 1 cm tissue): close to the background | limit of detection (LOD), in vivo imaging [4]: 49 nM
